Measured values taken from patent publication US20110112187A1, “Use Of Tranilast And Derivatives Thereof For The Therapy Of Neurological Conditions” (priority 2007, published 2011).

Assays:
[1] = system: SH-SY5Y neuronal cells; assay: In vitro viability assay (constitutive Renilla luciferase reporter); format: cell-based, human; conditions: 0.8 μM to 50 μM, 5 h
Protocol: The viability assay allows for further assessment of test compounds regarding their effect on cells such as neurons. Therefore, a stably transfected cell line (e.g. SH-SY5Y cells) with a reporter construct (e.g. a luciferase construct) has to be incubated with the test compound and in parallel with positive and negative controls (e.g. staurosporine and sham, respectively). Subsequently, the signal generated by the reporter construct serves as a readout for the viability of the cells in the presence of the test compound. The assay enables the evaluation of potential neurotoxic effects of the test compound itself. […]
SH-SY5Y neuronal cells stably transfected with a Renilla luciferase construct under the SV40 promoter were seeded in 96-well plates at a density of 2.5×10^4 cells per well. […] The Renilla luciferase activity was measured 5 h later using a luminometer (Berthold Technologies, Mithras LB 940). […]
Analogously to Example 5, various derivatives of tranilast (N-(3′,4′-methylenedioxycinnamoyl)-anthranilic acid (FIG. 2a (ChemBridge Corporation)), 2-(3′,4′-dimethoxycinnamoylamino)-toluene (FIG. 2b (ChemBridge Corporation)), N-cinnamoyl-anthranilic acid (FIG. 2c (ChemBridge Corporation)), and 2-(3′,4′-dimethoxycinnamoylamino)-anisole (FIG. 2d (Ambinter SARL))) have been analysed for their effect on the viability of neuronal cells. […]

[2] = system: SH-SY5Y neuronal cells; assay: In vitro anti-apoptosis assay (Caspase-Glo 3/7, staurosporine induced apoptosis); format: cell-based, human; conditions: for apoptosis (caspase-3/7 luminescence) relative to staurosporine: 5 h
Protocol: Neuroprotection is attainable via the inhibition of apoptosis of affected neurons. The anti-apoptotic effect of tranilast and its derivatives can be assayed in vitro by measuring the caspase-3 and caspase-7 activities. These members of the cysteine aspartic acid-specific protease (caspase) family play key effector roles in apoptosis in mammalian cells. Cortical neurons have to be isolated and subsequently cultivated in a suitable culture medium. The cells have to be incubated with the test compound in the presence of an apoptotic substance such as staurosporine. Parallel approaches with staurosporine alone and sham treatment of the cells serve as […] controls. The assay allows evaluating whether the test compound can compensate either completely or partially for the apoptotic effect of staurosporine. This assay is suitable to assess the neuroprotective activity of tranilast and derivatives thereof, but also can be used to screen for other potential neuroprotective compounds. Preferably, such a screening can be used to test compounds which are already known to be suitable as a medicament in terms of its toxicology, bioavailability, solubility, stability etc.
The neuroprotective effect of compounds can be assayed in vitro by measuring caspase-3 and caspase-7 activities. These members of the cysteine aspartic acid-specific protease (caspase) family play a key effector role in apoptosis in mammalian cells.
The human neuroblastoma cell-line SH-SY5Y (American Type Culture Collection) maintained in DMEM with high glucose supplemented with 20% FBS was used for the apoptosis assay. Alternatively one can analyse the apoptosis of primary cortical neurons which can be isolated from E18 rats and subsequently cultivated in suitable culture medium. 2.5×10^4 SH-SY5Y cells were seeded in 96-well plates and stimulated 24 h later with tranilast or vehicle in the presence of the apoptosis inducing compound staurosporine (0.5 μM, Calbiochem). After 5 h incubation at 37° C., caspase-Glo 3/7 reagent (Promega) containing luciferase and luminogenic substrate was added to the cells. The cleavage of the substrate by caspase-3 and caspase-7 was detected 30 min later using a luminometer (Berthold Technologies, Mithras LB 940). The Luminescence which is proportional to the amount of caspase activity serves as a measure for the apoptosis of the treated neurons. Tranilast was tested in a range from 0.8 μM to 100 μM final concentration.
Analogously to Example 3, various derivatives of tranilast (N-(3′,4′-methylenedioxycinnamoyl)-anthranilic acid (FIG. 2a (ChemBridge Corporation)), 2-(3′,4′-dimethoxycinnamoylamino)-toluene (FIG. 2b (ChemBridge Corporation)), N-cinnamoyl-anthranilic acid (FIG. 2c (ChemBridge Corporation)), and 2-(3′,4′-dimethoxycinnamoylamino)-anisole (FIG. 2d (Ambinter SARL))) have been analysed for their anti-apoptotic activity. The SH-SY5Y cells have been incubated with these derivatives (1 μM) either alone or in the presence of staurosporine (0.5 μM). Incubation with staurosporine (0.5 μM) alone served as positive control and incubation with vehicle served as negative control. In the case of 3-(4′-chlorocinnamoylamino)-anisole (FIG. 2e (Sigma)) the SH-SY5Y cells have been incubated with this derivative (1 μM) either alone or in the presence of staurosporine […]. Accordingly, incubation with staurosporine […] alone served as positive control and incubation with vehicle served as negative control. The degree of apoptosis relative to the staurosporine control is shown in FIG. 4 a (vehicle (sham): 9% staurosporine (SP): 100%; tranilast: 8%; tranilast plus staurosporine: 75%; derivative A: 3%; derivative A plus staurosporine: 27%; derivative B: 7%; derivative B plus staurosporine: 79%; derivative C: 2%; derivative C plus staurosporine: 20%; derivative D: 7%; derivative D plus staurosporine: 80%) and FIG. 4 b (vehicle (sham): 13%; staurosporine: 100%; derivative E: 6%; derivative E plus staurosporine: 25%).

COc1ccc(/C=C/C(=O)Nc2ccccc2C(=O)O)cc1OC [tranilast, 2-((3-(3,4-dimethoxyphenyl)-1-oxo-2-propenyl)amino)benzoic acid]
effect on the viability of neuronal cells (Renilla luciferase activity) [1]: did not show any significant effect on the viability of the neuronal cells
apoptosis (caspase-3/7 luminescence) relative to staurosporine ([2]; 0.8 μM tranilast plus 0.5 μM staurosporine): 84%
apoptosis (caspase-3/7 luminescence) relative to staurosporine ([2]; 1.6 μM tranilast plus 0.5 μM staurosporine): 74%
apoptosis (caspase-3/7 luminescence) relative to staurosporine ([2]; 3.1 μM tranilast plus 0.5 μM staurosporine): 76%
apoptosis (caspase-3/7 luminescence) relative to staurosporine ([2]; 6.3 μM tranilast plus 0.5 μM staurosporine): 74%
apoptosis (caspase-3/7 luminescence) relative to staurosporine ([2]; 12.5 μM tranilast plus 0.5 μM staurosporine): 58%
apoptosis (caspase-3/7 luminescence) relative to staurosporine ([2]; 25 μM tranilast plus 0.5 μM staurosporine): 46%
apoptosis (caspase-3/7 luminescence) relative to staurosporine ([2]; 50 μM tranilast plus 0.5 μM staurosporine): 30%
apoptosis (caspase-3/7 luminescence) relative to staurosporine ([2]; 100 μM tranilast plus 0.5 μM staurosporine): 15%
anti-apoptotic effect: reduction of the staurosporine induced apoptosis ([2]; co-incubation with staurosporine): significant reduction of the staurosporine induced apoptosis
degree of apoptosis relative to the staurosporine control ([2]; compound 1 μM alone, FIG. 4a (control staurosporine 0.5 μM)): 8%
degree of apoptosis relative to the staurosporine control ([2]; compound 1 μM plus staurosporine 0.5 μM, FIG. 4a): 75%
